The assay concerns T. mentagrophytes (TIMM1189). Nature of the assay: Antifungal Activity Test (Measurement of Minimum Inhibitory Concentration). The format is cell-based. To be noted: Trichophyton mentagrophytes, 168 h, Sabouraud dextrose broth, 27° C., 1 week, visual determination, read-out: MIC (minimum concentration at which growth was completely inhibited). As to the method:
Antifungal activities of compounds according to the present invention against Trichophyton sp. were determined. Described specifically, T. mentagrophytes (TIMM1189) was cultured at 27° C. for 2 weeks on Sabouraud dextrose agar slants in advance, whereby it was allowed to form sufficient conidia. The conidia were washed in a sterilized physiological saline, which contained Tween 80 at a concentration of 0.05 wt./vol. %, by rubbing the conidia with a platinum loop, whereby the conidia were suspended. The suspension was filtered through a double-layer gauze so that only the conidia were collected in a form suspended in the physiological saline. The suspension was diluted to adjust the concentration of conidia to 1×10^5 conidia/ml, whereby a test fungus solution was obtained. Meanwhile, 4 mg of one of the test compounds were taken, to which 1 ml of dimethyl sulfoxide was added to prepare a stock. The stock was subjected to doubling dilution with ethanol to prepare diluted drug solutions. To each well of a 96-well microplate for tissue culture, 175 μl of Sabouraud dextrose broth, 5 μl of the corresponding drug solution and 20 μl of the test fungus solution were added. Subsequent to thorough mixing, the fungus strain was cultured at 27° C. for 1 week.

Data on 10 compounds can be found in US6015925A, “Antifungal agents” (Pola Chemical Industries, Inc., priority 1998, dated 2000).

SMILES strings stand for the structures. In brackets after ≈: the same amount, converted by molar mass.

For the compound `CN(Cc1ccc(C(C)(C)C)cc1)Cc1ccccc1-c1ccccc1` [Compound 1, 4-tert-butyl-N-methyl-N-(2-phenylbenzyl)benzylamine], the MIC stood at 12.5 µg/mL (≈ 36.4 µM).

For `CN(Cc1ccc(C(C)(C)C)cc1)Cc1cccc(-c2ccccc2)c1` [Compound 2, 4-tert-butyl-N-methyl-N-(3-phenylbenzyl)benzylamine], the MIC came out at 25 µg/mL (≈ 72.8 µM). For the compound `CN(Cc1ccc(-c2ccccc2)cc1)Cc1ccc(C(C)(C)C)cc1` [Compound 3, 4-tert-butyl-N-methyl-N-(4-phenylbenzyl)benzylamine], the MIC came to 12.5 µg/mL (≈ 36.4 µM). Regarding `CN(Cc1ccc(C(C)(C)C)cc1)C(c1ccccc1)c1ccccc1` [Compound 4, 4-tert-butyl-N-diphenylmethyl-N-methylbenzylamine], the MIC was determined as 100 µg/mL (≈ 291 µM).

Consider `CN(C/C=C/C#CC(C)(C)C)Cc1ccccc1-c1ccccc1` [Compound 5, trans-N-(6,6-dimethyl-2-hepten-4-yn-1-yl)-N-methyl-2-phenylbenzylamine], for which the MIC came out at 12.5 µg/mL (≈ 39.4 µM). Regarding `CN(C/C=C\C#CC(C)(C)C)Cc1ccccc1-c1ccccc1` [Compound 6, cis-N-(6,6-dimethyl-2-hepten-4-yn-1-yl)-N-methyl-2-phenylbenzylamine], the MIC worked out at 100 µg/mL (≈ 315 µM). As for `CN(C/C=C/C#CC(C)(C)C)Cc1cccc(-c2ccccc2)c1` [Compound 7, trans-N-(6,6-dimethyl-2-hepten-4-yn-1-yl)-N-methyl-3-phenylbenzylamine], the MIC came out at 12.5 µg/mL (≈ 39.4 µM). To `CN(C/C=C\C#CC(C)(C)C)Cc1cccc(-c2ccccc2)c1` [Compound 8, cis-N-(6,6-dimethyl-2-hepten-4-yn-1-yl)-N-methyl-3-phenylbenzylamine] belongs 12.5 µg/mL (≈ 39.4 µM). As for `CN(C/C=C/C#CC(C)(C)C)Cc1ccc(-c2ccccc2)cc1` [Compound 9, trans-N-(6,6-dimethyl-2-hepten-4-yn-1-yl)-N-methyl-4-phenylbenzylamine], the MIC worked out at 12.5 µg/mL (≈ 39.4 µM). For the compound `CN(CC=CC#CC(C)(C)C)C(c1ccccc1)c1ccccc1` [Compound 11, N-(6,6-dimethyl-2-hepten-4-yn-1-yl)-N-methyl(diphenylmethyl)amine], the MIC is 100 µg/mL (≈ 315 µM).
